Experimental data: US9265773B2, “Tetracyclic heterocycle compounds and methods of use thereof for the treatment of viral diseases” (priority 2011, dated 2016)

How the values were obtained:
HCV replicon genotype 1a = assay: microbe, parasite or virus in culture; type: cell-based; settings: genotype 1a replicon cells, incubated 96 hours, NS3/4A ELISA readout
HCV replicon genotype 1b = assay: microbe, parasite or virus in culture; type: cell-based; settings: genotype 1b replicon cells, incubated 96 hours, NS3/4A ELISA readout

Row | SMILES | IC50 (HCV replicon genotype 1a) | IC50 (HCV replicon genotype 1b) | IC50 (HCV replicon genotype 1a; Hepatitis C virus, 96 h) | IC50 (HCV replicon genotype 1b; Hepatitis C virus, 96 h)
1 | CCNC(=O)C1Oc2ccc(-c3cc4c(C(=O)NC)c(-c5ccc(F)cc5)oc4cc3N(C)S(C)(=O)=O)nc2-c2cc3c(F)cccc3n21 (centres unmarked) [Compound 108] | 14 nM | 2.4 nM |  | 
2 | CNC(=O)c1c(-c2ccc(F)cc2)oc2cc(N(CC(F)F)S(C)(=O)=O)c(-c3ccc4c(n3)-c3cc5ccccc5n3CO4)cc12 [Compound 185] |  |  | 7.9 nM | 16 nM
3 | CNC(=O)c1c(-c2ccc(F)cc2)oc2cc(N(C)S(C)(=O)=O)c(-c3ccc4c(c3)-c3nc5cccnc5n3CO4)cc12 [Compound 135] |  |  | 2.4 nM | 2.4 nM
4 | CNC(=O)c1c(-c2ccc(F)cc2)oc2cc(N(C)S(C)(=O)=O)c(-c3ncc4c(n3)-c3cc5ccccc5n3C(C)O4)cc12 (centres unmarked) [Compound 9] |  |  | 1.1 nM | 1.9 nM
5 | CNC(=O)c1c(-c2ccc(F)cc2)oc2cc(N(C)S(C)(=O)=O)c(-c3ccc4c(c3)-c3cc5ccccc5n3CC(F)CO4)cc12 (centres unmarked) [Compound 76, 5-(7-fluoro-7,8-dihydro-6H-benzo[2,3][1,5]oxazocino[5,4-a]indol-2-yl)-2-(4-fluorophenyl)-N-methyl-6-(N-methylmethylsulfonamido)benzofuran-3-carboxamide] |  |  | 4.5 nM | 5.8 nM
6 | CNC(=O)c1c(-c2ccc(F)cc2)oc2cc(N(C)S(C)(=O)=O)c(-c3ccc4c(n3)-c3cc5cc(F)cc(F)c5n3CO4)cc12 [Compound 19] |  |  | 19 nM | 21 nM
7 | CNC(=O)c1c(-c2ccc(F)cc2)oc2cc(N(C)S(C)(=O)=O)c(-c3ccc4c(c3)-c3cc5ccccc5n3CC(O)CO4)cc12 (centres unmarked) [Compound 75, 2-(4-fluorophenyl)-5-(7-hydroxy-7,8-dihydro-6H-benzo[2,3][1,5]oxazocino[5,4-a]indol-2-yl)-N-methyl-6-(N-methylmethylsulfonamido)benzofuran-3-carboxamide] |  |  | 2.8 nM | 2.6 nM
8 | CNC(=O)c1c(-c2ccc(F)cc2)oc2cc(N(C)S(C)(=O)=O)c(-c3cc4c(c[n+]3[O-])OCn3c-4cc4c(F)cccc43)cc12 [Compound 74] |  |  | 15 nM | 25 nM
9 | CNC(=O)c1c(-c2ccc(F)cc2)oc2cc(N(C)S(C)(=O)=O)c(-c3cc4c(cn3)OCn3c-4cc4c(C#N)cccc43)cc12 [Compound 23] |  |  | 0.9 nM | 1.2 nM
10 | CNC(=O)c1c(-c2ccc(F)cc2)oc2cc(N(C)S(C)(=O)=O)c(-c3ccc4oc(=O)n5c6cccc(F)c6cc5c4n3)cc12 [Compound 54, 5-(11-fluoro-6-oxo-6H-pyrido[2′,3′:5,6][1,3]oxazino[3,4-a]indol-2-yl)-2-(4-fluorophenyl)-N-methyl-6-(N-methylmethylsulfonamido)benzofuran-3-carboxamide] |  |  | 69 nM | 39 nM
11 | CNC(=O)c1c(-c2ccc(F)cc2)oc2cc(N(C)S(C)(=O)=O)c(-c3ccc4c(n3)-c3cc5c(F)cccc5n3C(c3ccccc3)O4)cc12 (centres unmarked) [Compound 51, 5-(11-fluoro-6-phenyl-6H-pyrido[2′,3′:5,6][1,3]oxazino[3,4-a]indol-2-yl)-2-(4-fluorophenyl)-N-methyl-6-(N-methylmethylsulfonamido)benzofuran-3-carboxamide] |  |  | 17 nM | 33 nM
12 | CN(c1cc2oc(-c3ccc(F)cc3)c(C(=O)NCCO)c2cc1-c1ccc2c(n1)-c1cc3c(F)cccc3n1CO2)S(C)(=O)=O [Compound 151, 5-(11-fluoro-6H-pyrido[2′,3′:5,6][1,3]oxazino[3,4-a]indol-2-yl)-2-(4-fluorophenyl)-N-(2-hydroxyethyl)-6-(N-methylmethylsulfonamido)benzofuran-3-carboxamide] |  |  | 4.3 nM | 5.9 nM
13 | CNC(=O)c1c(-c2ccc(F)cc2)oc2cc(N(C)S(C)(=O)=O)c(-c3ccc4c(n3)-c3c(Cl)c5c(F)cccc5n3CO4)cc12 [Compound 56] |  |  | 13 nM | 12 nM
14 | CNC(=O)c1c(-c2ccc(F)cc2)oc2cc(-n3cn[nH]c3=O)c(-c3ccc4c(n3)-c3cc5c(F)cccc5n3CO4)cc12 [Compound 164] |  |  | 1.7 nM | 1 nM
15 | CNC(=O)c1c(-c2ccc(F)cc2F)oc2cc(N(C)S(C)(=O)=O)c(-c3ccc4c(n3)-c3cc5c(F)cccc5n3CO4)cc12 [Compound 147, 2-(2,4-difluorophenyl)-5-(11-fluoro-6H-pyrido[2′,3′:5,6][1,3]oxazino[3,4-a]indol-2-yl)-N-methyl-6-(N-methylmethylsulfonamido)benzofuran-3-carboxamide] |  |  | 9 nM | 6.9 nM
16 | CNC(=O)c1c(-c2ccc(F)cc2)oc2cc(N(C)S(C)(=O)=O)c(-c3nc4c(cc3OC)OCn3c-4cc4ccccc43)cc12 [Compound 29] |  |  | 4.8 nM | 8 nM
17 | CNC(=O)c1c(-c2ccc(F)cc2)oc2cc(N(CCF)S(C)(=O)=O)c(-c3ccc4c(n3)-c3cc5c(F)cccc5n3CO4)cc12 [Compound 190] |  |  | 2.8 nM | 3.8 nM
18 | CNC(=O)c1c(-c2ccc(F)cc2)oc2cc(N(C)S(C)(=O)=O)c(-c3cc4c(cn3)OC(CO)n3c-4cc4c(F)cccc43)cc12 (centres unmarked) [Compound 90] | 5.5 nM | 2.4 nM |  | 
19 | CNC(=O)c1c(-c2ccc(F)cc2)oc2cc(N(C)S(C)(=O)=O)c(-c3ccc4c(n3)-c3cc5c(F)cccc5n3C(C)O4)cc12 (centres unmarked) [Compound 37] |  |  | 3.4 nM | 5.9 nM
20 | CNC(=O)c1c(-c2ccc(F)cc2)oc2cc(N(C)S(C)(=O)=O)c(-c3ccc4c(n3)-c3cc5c(F)cccc5n3C(CN)O4)cc12 (centres unmarked) [Compound 115, 5-(6-(aminomethyl)-11-fluoro-6H-pyrido[2′,3′:5,6][1,3]oxazino[3,4-a]indol-2-yl)-2-(4-fluorophenyl)-N-methyl-6-(N-methylmethylsulfonamido)benzofuran-3-carboxamide] | 8.9 nM | 19 nM |  | 
21 | CNC(=O)c1c(-c2ccc(F)cc2)oc2cc(N(CCCF)S(C)(=O)=O)c(-c3ncc4c(n3)-c3cc5c(F)cccc5n3CO4)cc12 [Compound 195] |  |  | 2.1 nM | 4.1 nM
22 | CNC(=O)c1c(-c2ccc(F)cc2)oc2cc(N3CCCS3(=O)=O)c(-c3ccc4c(n3)-c3cc5c(F)cccc5n3CO4)cc12 [Compound 175, 6-(1,1-dioxidoisothiazolidin-2-yl)-5-(11-fluoro-6H-pyrido[2′,3′:5,6][1,3]oxazino[3,4-a]indol-2-yl)-2-(4-fluorophenyl)-N-methylbenzofuran-3-carboxamide] |  |  | 5.3 nM | 3.1 nM
23 | CNC(=O)c1c(-c2ccc(F)cc2)oc2cc(N(C)S(C)(=O)=O)c(-c3ncc4c(n3)-c3cc5cc(F)ccc5n3CO4)cc12 [Compound 6] |  |  | 1.5 nM | 2.3 nM
24 | CNC(=O)c1c(-c2ccc(F)cc2)oc2cc(N(CC(F)F)S(C)(=O)=O)c(-c3ccc4c(n3)-c3cc5c(F)cccc5n3CO4)cc12 [Compound 184, 6-(N-(2,2-difluoroethyl)methylsulfonamido)-5-(11-fluoro-6H-pyrido[2′,3′:5,6][1,3]oxazino[3,4-a]indol-2-yl)-2-(4-fluorophenyl)-N-methylbenzofuran-3-carboxamide] |  |  | 8.4 nM | 6.5 nM
25 | CNC(=O)c1c(-c2ccc(F)cc2)oc2cc(N(C)S(C)(=O)=O)c(-c3ccc4c(n3)-c3cc5c(F)cccc5n3C(CNC(C)=O)O4)cc12 (centres unmarked) [Compound 129] | 1.7 nM | 2.1 nM |  | 
